Source: ChEMBL document CHEMBL3232922, “Discovery and SAR of 6-alkyl-2,4-diaminopyrimidines as histamine H₄ receptor antagonists” (J Med Chem, 2014)
Each block holds one molecule with its values, some of them ahead of it.

Experiments:
[1] = molecular target: T1, Histamine H4 receptor (Homo sapiens, UniProt Q9H3N8); experiment: Displacement of [3H]histamine from human recombinant histamine H4 receptor expressed in SK-N-MC cells after 45 mins by competition binding analysis; format: cell-based
[2] = molecular target: T1, Histamine H4 receptor; experiment: Agonist activity at human H4 receptor; details: read-out: EC50
[3] = molecular target: T1, Histamine H4 receptor; experiment: Antagonist activity at human histamine H4 receptor expressed in SK-N-MC cells assessed as reduction of histamine-induced inhibition of cAMP-mediated beta-galactosidase reporter gene activity treated 10 mins prior to histamine challenge by microplate reader analysis; format: functional, cell-based; details: read-out: pA2 (converted)
[4] = AUC in Balb/c mouse at 20 mg/kg, po; format: ADME, organism-based; set-up: dose 20 mg/kg, route oral; details: plasma
[5] = AUC in Sprague-Dawley rat at 2 mg/kg, iv; format: ADME, organism-based; set-up: dose 2 mg/kg, route intravenous; details: plasma
[6] = AUC in Sprague-Dawley rat at 10 mg/kg, po; format: ADME, organism-based; set-up: dose 10 mg/kg, route oral; details: plasma
[7] = tested on: Canis familiaris; experiment: AUC in beagle dog at 2 mg/kg, iv; format: ADME, organism-based, Canis lupus familiaris, Plasma; set-up: dose 2 mg/kg, route intravenous; details: in vivo
[8] = AUC in beagle dog at 10 mg/kg, po; format: ADME, organism-based, Canis lupus familiaris; set-up: dose 10 mg/kg, route oral; details: plasma
[9] = tested on: Rattus norvegicus; experiment: Clearance in Sprague-Dawley rat at 2 mg/kg, iv; format: ADME, organism-based; set-up: dose 2 mg/kg, route intravenous; details: in vivo
[10] = tested on: Rattus norvegicus; experiment: Volume of distribution at steady state in Sprague-Dawley rat at 2 mg/kg, iv; format: ADME, organism-based; set-up: dose 2 mg/kg, route intravenous; details: in vivo
[11] = Volume of distribution at steady state in beagle dog at 2 mg/kg, iv; format: ADME, organism-based, Canis lupus familiaris; set-up: dose 2 mg/kg, route intravenous; details: in vivo, read-out: Vdss
[12] = Half life in Balb/c mouse at 20 mg/kg, po; format: ADME, organism-based; set-up: dose 20 mg/kg, route oral; details: in vivo
[13] = tested on: Rattus norvegicus; experiment: Half life in Sprague-Dawley rat at 2 mg/kg, iv; format: ADME, organism-based; set-up: dose 2 mg/kg, route intravenous; details: in vivo
[14] = Half life in Sprague-Dawley rat at 10 mg/kg, po; format: ADME, organism-based; set-up: dose 10 mg/kg, route oral; details: in vivo
[15] = Half life in beagle dog at 2 mg/kg, iv; format: ADME, organism-based, Canis lupus familiaris; set-up: dose 2 mg/kg, route intravenous; details: in vivo
[16] = Half life in beagle dog at 10 mg/kg, po; format: ADME, organism-based, Canis lupus familiaris; set-up: dose 10 mg/kg, route oral; details: in vivo
[17] = Oral bioavailability in Sprague-Dawley rat at 10 mg/kg; format: ADME, organism-based; details: in vivo
[18] = Oral bioavailability in beagle dog at 10 mg/kg; format: ADME, organism-based, Canis lupus familiaris; details: in vivo
[19] = Tmax in Balb/c mouse at 20 mg/kg, po; format: ADME, organism-based; set-up: dose 20 mg/kg, route oral; details: in vivo
[20] = Tmax in Sprague-Dawley rat at 10 mg/kg, po; format: ADME, organism-based; set-up: dose 10 mg/kg, route oral; details: in vivo
[21] = Tmax in beagle dog at 10 mg/kg, po; format: ADME, organism-based, Canis lupus familiaris; set-up: dose 10 mg/kg, route oral; details: in vivo
[22] = Cmax in Balb/c mouse at 20 mg/kg, po; format: ADME, organism-based; set-up: dose 20 mg/kg, route oral; details: in vivo
[23] = Initial plasma concentration in Sprague-Dawley rat at 2 mg/kg, iv; format: ADME, organism-based; set-up: dose 2 mg/kg, route intravenous
[24] = Cmax in Sprague-Dawley rat at 10 mg/kg, po; format: ADME, organism-based; set-up: dose 10 mg/kg, route oral; details: in vivo
[25] = Initial plasma concentration in beagle dog at 2 mg/kg, iv; format: ADME, organism-based, Canis lupus familiaris; set-up: dose 2 mg/kg, route intravenous
[26] = Cmax in beagle dog at 10 mg/kg, po; format: ADME, organism-based, Canis lupus familiaris; set-up: dose 10 mg/kg, route oral; details: in vivo

Compound: CN[C@@H]1CCN(c2cc(Cl)nc(N)n2)C1
- Ki [1]: > 10000 nM

Compound: CN[C@@H]1CCN(c2cc(C3CCC3)nc(N)n2)C1
- Ki [1]: 2.4 nM
- EC50 [2]: > 10000 nM
- Kb [3]: 0.398 nM

Compound: CN[C@@H]1CCN(c2cc(C(F)(F)F)nc(N)n2)C1
- Ki [1]: > 10000 nM

Compound: CN1C[C@@H]2CN(c3cc(C4CCCC4)nc(N)n3)C[C@@H]2C1
- EC50 [2]: > 10000 nM
- Kb [3]: 20 nM

Compound: Nc1nc(C2CCCC2)cc(N2C[C@H]3NCCO[C@@H]3C2)n1 (racemic)
- Ki [1]: 56 nM
- EC50 [2]: > 10000 nM
- Kb [3]: 126 nM

Compound: CN1CCN(C(=O)c2nc3c([nH]2)CCCC3)CC1
- Ki [1]: 39 nM

Compound: Nc1nc(C2CCCC2)cc(N2C[C@H]3CCCN[C@H]3C2)n1
- Ki [1]: 1.8 nM
- EC50 [2]: > 10000 nM
- Kb [3]: < 0.1 nM

More lines, now with the values ahead:

- EC50 [2]: > 10000 nM
- Kb [3]: 12.6 nM
Compound: CN[C@@H]1CCN(c2cc(C(C)C)nc(N)n2)C1

- Ki [1]: 1.1 nM
- EC50 [2]: > 10000 nM
- Kb [3]: 0.251 nM
Compound: CN[C@@H]1CCN(c2cc(C3CCCC3)nc(N)n2)C1

- Ki [1]: 9 nM
Compound: CN[C@@H]1CCN(c2nc(N)nc3c2oc2ncc(Cl)cc23)C1

- Ki [1]: 100 nM
Compound: Nc1nc(Cc2ccccc2)cc(N2CC[C@@H](N)C2)n1

- Ki [1]: 20 nM
Compound: CN1CCN(C(=O)c2nc3cc(Cl)ccc3[nH]2)CC1

- AUC [4]: 60 µM·h
- AUC [5]: 11 µM·h
- AUC [6]: 27.8 µM·h
- AUC [7]: 8.1 µM·h
- AUC [8]: 45 µM·h
- CL [9]: 5.5 mL/min/kg
- Vdss [10]: 6.3 L/kg
- Vd [11]: 15.1 L/kg
- half-life [12]: 5.2 h
- t1/2 [13]: 5.3 h
- half-life [14]: 9.3 h
- half-life [15]: 9.3 h
- half-life [16]: 10 h
- bioavailability [17]: 50%
- bioavailability [18]: 112%
- EC50 [2]: > 10000 nM
- Kb [3]: 10 nM
- Tmax [19]: 0.5 h
- Tmax [20]: 5 h
- Tmax [21]: 0.6 h
- Cmax [22]: 8.5 µM
- C0 [23]: 19 µM
- Cmax [24]: 1.6 µM
- C0 [25]: 2.5 µM
- Cmax [26]: 4.2 µM
Compound: CN[C@@H]1CCN(c2cc(Cc3ccccc3)nc(N)n2)C1

- EC50 [2]: > 10000 nM
- Kb [3]: 12.6 nM
Compound: CCc1cc(N2CC[C@@H](N)C2)nc(N)n1

- EC50 [2]: > 10000 nM
- Kb [3]: 7.94 nM
Compound: CN[C@@H]1CCN(c2cc(C3CC3)nc(N)n2)C1

- Ki [1]: 25 nM
- EC50 [2]: > 10000 nM
Compound: CN[C@H]1CCN(c2cc(C3CCCC3)nc(N)n2)C1
